The source of these data is patent US20230212164A1, “ANNULATED 2-AMINO-3-CYANO THIOPHENES AND DERIVATIVES FOR THE TREATMENT OF CANCER” (BOEHRINGER INGELHEIM INTERNATIONAL GMBH, priority 2020, published 2023).

SMILES strings stand for the structures.

Assay [1] relates to pERK (Thr202/Tyr204) in NCI-H358_Cas9_SOS2 (SOS2 knocked). In words: ERK phosphorylation assay 2 (AlphaLISA SureFire Ultra p-ERK1/2). To be noted: read-out: IC50 H358 pERK, ERK phosphorylation assay 2 (values marked with *).
Experimental: ERK Phosphorylation Assay
Low IC50 values in this assay setting are indicative of high potency of the compounds according to the invention.
GFP positive cells were collected and further expanded. These GFP-positive cell pools were single-cell diluted and SOS2 knock-out clones were identified via Western-blot and genomic DNA sequencing analysis.
Materials Used for the Assay:
AlphaLISA SureFire Ultra p-ERK1/2 (Thr202/Tyr204) Assay Kit (ALSU-PERK-A500)
Cells are seeded at 40,000 cells per well in /60 μL of RPMI with 10% FBS, non-essential amino acids, pyruvate and glutamax in Greiner TC 384 plates. The cells are incubated for 1 h at room temperature and then incubated overnight in an incubator at 37° C. and 5% CO2 in a humidified atmosphere. 60 nL compound solution (10 mM DMSO stock solution) is then added using a Labcyte Echo 550 device. After a 1 h incubation in the aforementioned incubator the medium is removed after centrifugation and the cells lysed by addition of 20 μL of 1.6-fold lysis buffer from the AlphaLISA SureFire Ultra pERK1/2 (Thr202/Tyr204) Assay Kit with added protease inhibitors, 100 nM trametinib+100 nM staurosporine. After 20 minutes of incubation at room temperature with shaking, 6 μL of each lysate sample is transferred to a 384-well Proxiplate and analyzed for pERK (Thr202/Tyr204) with the AlphaLISA SureFire Ultra pERK1/2 (Thr202/Tyr204) Assay Kit. 3 μL Acceptor Mix and 3 μL Donor Mix are added under subdued light and incubated for 2 h at room temperature in the dark, before the signal is measured on a PerkinElmer Envision HTS Multilabel Reader. The raw data were imported into and analyzed with the Boehringer Ingelheim proprietary software MegaLab (curve fitting based on the program PRISM, GraphPad Inc.).
Assay [2] concerns the target T1, protein-protein interaction between SOS1 and KRAS G12C (Homo sapiens, UniProt P01116, C118S/C51S/C80L/G12C).
T1 construct: His6 (N)
The assay is described as follows: KRAS::SOS1 AlphaScreen binding assay. Background: Alpha assays give light when donor and acceptor beads are brought close together.

Assay [3] has as its target KRASG12-dependent Ba/F3 cells (Homo sapiens, UniProt P01116, G12C, cells depend on it). The assay is described as follows: Ba/F3 cell model proliferation assay (AlamarBlue, 72 h). Type of assay: cell-based. As to conditions: Ba/F3 cells transduced with KRASG12C, read-out: IC50 Ba/F3 KRASG12C. The protocol:
Ba/F3 Cell Model Generation and Proliferation Assay
Plasmids containing KRASG12 mutants were obtained from GeneScript. To generate KRASG12-dependent Ba/F3 models, Ba/F3 cells were transduced with retroviruses containing vectors that harbor KRASG12 isoforms. Platinum-E cells (Cell Biolabs) were used for retrovirus packaging. Retrovirus was added to Ba/F3 cells. To ensure infection, 4 μg/mL polybrene was added and cells were spinfected. […] Cells with an infection efficiency of 10% to 20% were further cultivated and puromycin selection with 1 μg/mL was initiated. As a control, parental Ba/F3 cells were used to show selection status. Selection was considered successful when parental Ba/F3 cells cultures died. To evaluate the transforming potential of KRASG12 mutations, the growth medium was no longer supplemented with IL-3. Ba/F3 cells harboring the empty vector were used as a control. Approximately ten days before conducting the experiments, puromycin was left out.
All treatments were performed in technical duplicates. The assay is run using a fully automated robotic system. Treated cells were incubated for 72 h at 37° C. with 5% CO2.
AlamarBlue™ (ThermoFisher), a viability stain, was added and fluorescence measured in the PerkinElmer Envision HTS Multilabel Reader.
Background: Resazurin is reduced to fluorescent resorufin, in cell work by metabolically active cells.

The test system of assay [4] is pERK (Thr202/Tyr204) in NCI-H358 (KRAS G12C mutation). In words: ERK phosphorylation assay 1 (AlphaLISA SureFire Ultra p-ERK1/2). To be noted: Homo sapiens, NCI-H358, read-out: IC50 H358 pERK.

KRASG12-dependent Ba/F3 cells, sequence (P01116 whole entry G12C): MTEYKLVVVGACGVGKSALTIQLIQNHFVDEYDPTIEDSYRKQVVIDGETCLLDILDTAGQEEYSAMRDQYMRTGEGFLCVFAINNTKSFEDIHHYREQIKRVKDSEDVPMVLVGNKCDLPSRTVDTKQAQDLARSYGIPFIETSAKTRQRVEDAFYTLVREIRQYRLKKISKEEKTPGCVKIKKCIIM
T1 sequence (P01116 1-169 isoform P01116-2 G12C/C51S/C80L/C118S): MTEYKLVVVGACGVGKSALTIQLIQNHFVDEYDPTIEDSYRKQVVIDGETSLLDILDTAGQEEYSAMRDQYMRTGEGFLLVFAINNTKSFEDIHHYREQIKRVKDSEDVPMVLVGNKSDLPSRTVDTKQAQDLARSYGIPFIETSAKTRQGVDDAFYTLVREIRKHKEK

The IC50 is the midpoint of a concentration-inhibition curve. Turning to `C[C@H](Oc1nc(-c2noc([C@@]3(C)CCCc4sc(N)c(C#N)c43)n2)cc(N2CCN(C(=O)/C=C/CN3CCOCC3)CC2)n1)[C@@H]1CCCN1C` [Ia-158], the results for the IC50 in assay [1] and in assay [2] (Table 37) were 103 nM and 4 nM, respectively. In addition, the GI50 in assay [3] came to 467 nM.

As for `C/C=C/C(=O)N1CCN(c2cc(-c3noc([C@@]4(C)CCCc5sc(N)c(C#N)c54)n3)nc(O[C@@H](C)[C@@H]3CCCN3C)n2)CC1` [Ia-155], the IC50 is 39.8 nM in assay [1] and 10 nM in assay [2] (Table 37). The GI50 in assay [3] was 271 nM.

Turning to `C=CC(=O)N1CCN(c2cc(-c3noc([C@@]4(C)CCCc5sc(N)c(C#N)c54)n3)nc(OC(C)CN3CCN(C)CC3)n2)CC1` (stereo partly shown) [Ia-66], the IC50 in assay [1] was 124 nM; in assay [2] (Table 36), 9 nM.

Turning to `C/C=C/C(=O)N1CCN(c2cc(-c3noc([C@@]4(C)CCCc5sc(N)c(C#N)c54)n3)nc(O[C@@H](C)[C@@H]3CCCN3C)n2)CC12CC2` [Ia-163], the IC50 in assay [1] is 81.3 nM; in assay [2] (Table 37), 22 nM. Also, the GI50 in assay [3] is 431 nM.

For `C=CC(=O)N1CCN(c2cc(O[C@@H](C)[C@@H]3CCCN3C)nc(-c3noc([C@@]4(C)CCCc5sc(N)c(C#N)c54)n3)c2)CC12CCCC2` [Ia-84], the results for the IC50 in assay [1] and in assay [2] (Table 36) were 11 nM and 3 nM, respectively. The GI50 in assay [3] is 9.9 nM.

For the compound `CC#CC(=O)N1CCN(c2cc(-c3noc([C@@]4(C)CCCc5sc(N)c(C#N)c54)n3)nc(O[C@@H](C)[C@@H]3CCCN3C)n2)CC12CC2` [Ia-166], the IC50 in assay [1] was found to be 4.2 nM; in assay [2] (Table 38) it was 3 nM. For the same compound, the GI50 in assay [3] came to 13.4 nM.

Consider `C=CC(=O)N1CCC(Oc2cc(-c3noc([C@]4(C)CCCc5sc(N)c(C#N)c54)n3)nc(N3CCN(C)C[C@@H]3C)c2)CC1` [Ia-80], for which the results for the IC50 in assay [1] and in assay [2] (Table 36) were 1150 nM and 507 nM, respectively. Also, the GI50 in assay [3] was found to be 559 nM.

On to `C=CC(=O)N1CCN(c2cc(-c3noc([C@@]4(C)CCCc5sc(N)c(C#N)c54)n3)nc(O[C@H]3CCN(C)[C@H]3C)n2)CC1` [Ia-68], for which the IC50 in assay [1] is 269 nM; in assay [2] (Table 36), 27 nM.

With `C=CC(=O)N1CC(Oc2cc(O[C@@H](C)[C@@H]3CCCN3C)nc(-c3noc([C@@]4(C)CCCc5sc(N)c(C#N)c54)n3)c2)C1` [Ia-3], the IC50 came out at 0.5 nM in assay [1] and 1.2 nM in assay [2] (Table 36). In assay [3], the GI50 came to 0.3 nM.

`C=CC(=O)N1CCCN(c2cc(-c3noc([C@@]4(C)CCCc5sc(N)c(C#N)c54)n3)nc(O[C@@H](C)[C@@H]3CCCN3C)n2)[C@@H](C)C1` [Ia-58]: the IC50 in assay [1] turned out to be 300 nM; in assay [2] (Table 36), 319 nM. In addition, the GI50 in assay [3] turned out to be 3480 nM.

`C=CC(=O)N1CCC(Oc2cc(-c3noc(C4(C)CCCc5sc(N)c(C#N)c54)n3)nc(N3CCC4(CCN(C)CC4)CC3)c2)CC1` (stereo not shown) [Ia-78]: the 50% inhibitory concentration (IC50) in assay [1] came to 458 nM; in assay [2] (Table 36) it was 155 nM. The GI50 in assay [3] worked out at 702 nM.

For `C=CC(=O)N1CCN(c2cc(-c3noc([C@@]4(C)CCCc5sc(N)c(C#N)c54)n3)nc(OC[C@@H]3C[C@@H]4C[C@@H]4N3C)n2)CC1` [Ia-71], the IC50 was 21.4 nM in assay [1] and 3 nM in assay [2] (Table 36). Besides, the GI50 in assay [3] was determined as 23.7 nM.

Turning to `C=CC(=O)N1CCC(Oc2cc(-c3noc([C@@]4(C)CCCc5sc(N)c(C#N)c54)n3)nc(N3CCN(C)C[C@@H]3C)c2)CC1` [Ia-79], the IC50 in assay [1] was 18.7 nM; in assay [2] (Table 36) it was 4 nM. In addition, in assay [3], the GI50 is 7.7 nM.

In the case of `C=CC(=O)N1CCN(c2cc(O[C@@H](C)[C@@H]3CCCN3C)nc(-c3noc([C@@]4(C)CCCc5sc(N)c(C#N)c54)n3)c2)CC1` [Ia-26], the figures for the IC50 in assay [1] and in assay [2] (Table 36) were 1.5 nM and 1.9 nM, respectively. In addition, the GI50 in assay [3] amounted to 3.3 nM.

For `C[C@H](Oc1nc(-c2noc([C@@]3(C)CCCc4sc(N)c(C#N)c43)n2)cc(N2CCN(C/C=C/C(=O)N(C)C)CC2)n1)[C@@H]1CCCN1C` [Ia-169], the IC50 in assay [1] came out at 1840 nM; in assay [2] (Table 39), 40 nM. For the same compound, the GI50 in assay [3] came to 7730 nM.

`C=CC(=O)N1CCN(c2cc(-c3noc([C@@]4(C)CCCc5sc(N)c(C#N)c54)n3)nc(O[C@H]3C4CC5CN(C)[C@@H]3[C@H]5C4)n2)CC1` (stereo partly shown) [Ia-51]: the IC50 in assay [1] came out at 98.5 nM; in assay [2] (Table 36), 19 nM.

Consider `C=CC(=O)N1CCN(c2cc(-c3noc(C4(C)CCc5sc(N)c(C#N)c54)n3)nc(O[C@@H](C)[C@@H]3CCCN3C)n2)CC1` (stereo partly shown) [Ia-134], for which the IC50 in assay [1] amounted to 5.6 nM; in assay [2] (Table 36) it was 3 nM. For the same compound, the GI50 in assay [3] turned out to be 15.4 nM.

Regarding `COC/C=C\C(=O)N1CCN(c2cc(O[C@@H](C)[C@@H]3CCCN3C)nc(-c3noc([C@@]4(C)CCCc5sc(N)c(C#N)c54)n3)n2)CC12CC2` [Ia-161], the IC50 turned out to be 26.5 nM in assay [1] and 21 nM in assay [2] (Table 37). In addition, the GI50 in assay [3] came out at 162 nM.

Take `C=CC(=O)N1CCN(c2cc(-c3noc([C@@]4(C)CCCc5sc(N)c(C#N)c54)n3)nc(OC3CC4(CCN(C)C4)C3)n2)CC1` (stereo partly shown) [Ia-69]: the IC50 in assay [1] amounted to 298 nM; in assay [2] (Table 36), 23 nM.

In the case of `C=CC(=O)N1CCN(c2cc(-c3noc([C@@]4(C)CCCc5sc(N)c(C#N)c54)n3)nc(N3CCOC[C@@H]3C)n2)CC1` [Ia-73], the IC50 was found to be 138 nM in assay [1] and 222 nM in assay [2] (Table 36).

With `C=CC(=O)N1CCCC(Oc2cc(-c3noc([C@@]4(C)CCCc5sc(N)c(C#N)c54)n3)nc(N3CCCN(C)C[C@@H]3C)c2)C1` (stereo partly shown) [Ia-6], the IC50 came out at 206 nM in assay [1] and 311 nM in assay [2] (Table 36).

Regarding `C=CC(=O)N1CCN(c2cc(-c3noc([C@@]4(C)CCCc5sc(N)c(C#N)c54)n3)nc(O[C@@H](CC)[C@@H]3CCCN3C)n2)CC1` [Ia-138], the IC50 in assay [1] is 7.8 nM; in assay [2] (Table 36), 2 nM.

Turning to `C=CC(=O)N1CCN(c2cc(-c3noc([C@@]4(C)CCCc5sc(N)c(C#N)c54)n3)nc(OC3(CN4CCCC4)CC3)n2)CC1` [Ia-67], the IC50 in assay [1] is 177 nM; in assay [2] (Table 36) it was 15 nM.

Take `C=CC(=O)N1CCN(c2cc(-c3noc([C@@]4(C)CCCc5sc(N)c(C#N)c54)n3)nc(N3CCC4(CC(O)C4)C3)n2)CC1` (stereo partly shown) [Ia-76]: the IC50 in assay [1] turned out to be 1000 nM; in assay [2] (Table 36) it was 391 nM.

Regarding `C=CC(=O)N1CCN(c2cc(-c3noc([C@@]4(C)CCCc5sc(N)c(C#N)c54)n3)nc(OC3CC4CCC(C3)N4C)n2)CC1` (stereo partly shown) [Ia-70], the IC50 in assay [1] turned out to be 413 nM; in assay [2] (Table 36), 49 nM.

Take `C=CC(=O)N1CCN(c2cc(-c3noc(C4(C)CCCc5sc(N)c(C#N)c54)n3)nc(N3CCC4(CCN(C)CC4)CC3)c2)CC1` (stereo not shown) [Ia-34]: the IC50 in assay [4] was determined as 282 nM; in assay [2] (Table 36), 259 nM. In assay [3], the GI50 amounted to 4380 nM.

With `[2H]C([2H])([2H])N1CCN(c2cc(N3CCN(C(=O)C=C)CC3)cc(-c3noc(C4(C)CCCc5sc(N)c(C#N)c54)n3)n2)CC1` (stereo not shown) [Ia-128], the IC50 was found to be 13.3 nM in assay [4] and 64 nM in assay [2] (Table 36). The GI50 in assay [3] was determined as 681 nM.

With `C=CC(=O)N1CCN(c2cc(-c3noc(C4(C)CCCc5sc(N)c(C#N)c54)n3)nc(N3CCN(C)C[C@@H]3CC)c2)CC1` (stereo partly shown) [Ia-15], the figures for the IC50 in assay [4] and in assay [2] (Table 36) were 7.3 nM and 53 nM, respectively. Moreover, the GI50 in assay [3] worked out at 219 nM.

In the case of `C=CC(=O)N1CCN(c2cc(-c3noc([C@@]4(C)CCCc5sc(N)c(C#N)c54)n3)nc(N3CC[C@H](O)[C@@H]3C)n2)CC1` [Ia-75], the IC50 in assay [1] was 553 nM; in assay [2] (Table 36) it was 180 nM.
